ChEMBL document CHEMBL1201862, “PubChem BioAssay data set” (2004)
Activity calls are given as the source filed them.

How the values were obtained:
[1] = viability of uninfected HEp-2 cells – cell-based, HTS, cytotoxicity control for RSV inhibitor project, dose response (AID 2410); type: functional; details: human respiratory syncytial virus
Cytochrome P450 2C19 = Cytochrome P450 2C19 (Homo sapiens, UniProt P33261); assay: Cytochrome panel assay with activity outcomes. Panel member name: p450-cyp2c19 Compounds with AC50 equal or less than 10 uM are considered active; type: functional; details: read-out: AC50
[2] = molecular target: T1, Heat shock factor protein 1 (Mus musculus, UniProt P38532); assay: enhancement of HSF1-driven luciferase signal – cell-based, NIH3T3, luminescence, dose retest, confirmation (AID 435004); type: functional;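 further: stress induced by proteasome inhibitor MG132 added 30 min after compound; luciferase reporter driven by HSF1 response element in NIH3T3 cells; actives raise luminescence as potentiators of the MG132 stress response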
T1 sequence (P38532 whole entry): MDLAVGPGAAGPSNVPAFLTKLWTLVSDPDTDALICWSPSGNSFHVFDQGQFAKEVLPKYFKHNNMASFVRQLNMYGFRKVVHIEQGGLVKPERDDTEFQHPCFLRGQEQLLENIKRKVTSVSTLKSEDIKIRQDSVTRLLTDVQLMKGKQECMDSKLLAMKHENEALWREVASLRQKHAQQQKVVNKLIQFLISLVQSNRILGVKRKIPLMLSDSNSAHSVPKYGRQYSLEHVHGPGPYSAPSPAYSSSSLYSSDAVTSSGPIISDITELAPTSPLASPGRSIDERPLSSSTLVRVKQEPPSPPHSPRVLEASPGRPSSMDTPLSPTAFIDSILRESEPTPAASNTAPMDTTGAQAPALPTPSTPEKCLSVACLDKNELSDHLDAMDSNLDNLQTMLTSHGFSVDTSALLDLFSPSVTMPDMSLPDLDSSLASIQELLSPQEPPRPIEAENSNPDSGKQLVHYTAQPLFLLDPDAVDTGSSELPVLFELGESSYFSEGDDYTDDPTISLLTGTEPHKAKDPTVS

[3] = Trypanosoma cruzi growth suppression in host cells – NIH3T3 host cells, beta-gal luminescence, confirmation (AID 2044); type: functional, cell-based;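 further: intracellular parasites grown in NIH/3T3 mouse fibroblasts as host cells; luminescent beta-galactosidase reporter signal from transgenic T. cruzi replicating inside host cells; inhibitors lower the luminescence signal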
[4] = NIH3T3 cell viability loss – ATP luminescence, mouse fibroblasts, counter-screen, dose response (AID 2010); type: functional, cell-based;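 further: cells exposed to compound for about 90 hours before reading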
[5] = tested on: Streptococcus sp. 'group A'; assay: Streptococcus pyogenes SK(-)GAS viability under kanamycin – luminescence, BacTiterGlo, confirmation, counter-screen for streptokinase expression inhibitor project, dose response (AID 1900); type: functional, organism-based
Streptokinase A = molecular target: T2, Streptokinase A (Streptococcus pyogenes serotype M1, UniProt P10520); assay: viability-normalized secreted streptokinase activity reduction – plasminogen activation absorbance, OD405, dose response (AID 1914); type: functional, Streptococcus pyogenes M1 GAS;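 further: secreted streptokinase activity via plasminogen activation per viability signal from cell pellet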
T2 sequence (P10520 whole entry): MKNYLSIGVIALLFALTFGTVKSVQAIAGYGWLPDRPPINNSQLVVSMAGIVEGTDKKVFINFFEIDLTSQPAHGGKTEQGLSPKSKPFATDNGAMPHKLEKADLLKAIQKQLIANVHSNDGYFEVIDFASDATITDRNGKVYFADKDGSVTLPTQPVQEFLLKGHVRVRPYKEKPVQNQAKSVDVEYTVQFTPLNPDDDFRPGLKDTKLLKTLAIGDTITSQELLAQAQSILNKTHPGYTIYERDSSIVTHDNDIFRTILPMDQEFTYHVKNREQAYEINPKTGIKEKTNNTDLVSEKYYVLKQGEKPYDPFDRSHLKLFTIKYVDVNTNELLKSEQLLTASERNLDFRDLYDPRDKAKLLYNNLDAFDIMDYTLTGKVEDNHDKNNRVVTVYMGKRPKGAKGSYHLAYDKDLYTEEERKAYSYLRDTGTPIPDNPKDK

Streptococcus = assay: GAS UMAA2166 growth inhibition – luminescence, BacTiterGlo, counter-screen for streptokinase expression inhibitor project, dose response (AID 1915); type: functional, organism-based;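 further: potency for reduction of bacterial viability or growth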

Chain of Cytochrome P450 2C19 (P33261 whole entry): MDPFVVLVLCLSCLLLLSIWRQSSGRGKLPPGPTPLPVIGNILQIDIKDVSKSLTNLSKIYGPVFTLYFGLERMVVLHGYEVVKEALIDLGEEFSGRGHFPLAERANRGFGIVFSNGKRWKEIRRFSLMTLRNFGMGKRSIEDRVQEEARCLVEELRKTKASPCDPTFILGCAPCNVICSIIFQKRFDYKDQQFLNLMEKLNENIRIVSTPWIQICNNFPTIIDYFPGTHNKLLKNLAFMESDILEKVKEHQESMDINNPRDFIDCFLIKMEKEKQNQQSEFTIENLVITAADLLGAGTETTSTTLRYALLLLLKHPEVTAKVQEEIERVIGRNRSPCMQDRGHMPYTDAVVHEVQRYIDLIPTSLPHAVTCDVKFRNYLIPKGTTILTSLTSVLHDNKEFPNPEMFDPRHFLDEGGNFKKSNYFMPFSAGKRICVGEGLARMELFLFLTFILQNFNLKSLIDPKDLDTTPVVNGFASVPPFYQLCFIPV

## Nc1c(Cl)cc(-c2csc(N3CCCC3c3nc4cc(Cl)c(Cl)cc4n3CCCO)n2)cc1Cl (configuration not stated)
[1]
  CC50: 35.1 µM (active)

## Cc1sc(NC(=O)c2c(F)cccc2F)nc1-c1ccccc1
[1]
  CC50: 43.2 µM (active)

## COc1cc(C(=O)NCC(c2cccs2)N2CCc3ccccc32)cc(OC)c1OC (configuration not stated)
[1]
  CC50: 18 µM (active)

## Cc1cc(OC(=O)c2ccccc2Br)cc(=O)n1C
Cytochrome P450 2C19
  AC50: 39.8 µM (inconclusive)

## CCNc1nc(NC(C)C)nc(N(C#N)C(C)C(=O)N(CC)CC)n1 (configuration not stated)
[1]
  CC50: 28.8 µM (active)

## C=CCOc1ccc(-c2nc3c(c(=O)[nH]c(=O)n3Cc3ccccc3)n2CCCOC)cc1
[2]
  EC50: > 260 µM (inactive)

## Cc1ccccc1OCCCC(=O)Nc1ccccc1C(F)(F)F
[2]
  EC50: > 260 µM (inactive)

## COc1cc(C(=O)NCC(c2cccnc2)N2CCN(c3ccc(F)cc3)CC2)cc(OC)c1OC (configuration not stated)
[3]
  EC50: 0.959 µM (active)
[4]
  EC50: > 30 µM (not active)

## COc1ccc(-c2cc(-c3ccc(Cl)cc3)[nH]n2)c(O)c1
[5]
  EC50: 7.27 µM (active)
Streptokinase A
  EC50: > 150 µM (not active)
Streptococcus
  EC50: 9.14 µM (active)

## N#CCCN1CCN(C(=S)c2ccc(-c3ccc(Cl)c(Cl)c3)o2)CC1
[2]
  EC50: 3.72 µM (active)

## COc1cc(C(=O)NCC2CCCO2)ccc1OCc1ccc(Cl)cc1Cl (configuration not stated)
[2]
  EC50: 104 µM (active)

## CCN(CC)CCCNC(=O)c1ccc(OCC(=O)Nc2ccccc2C(F)(F)F)c(OC)c1
[3]
  EC50: 1.95 µM (active)
[4]
  EC50: > 30 µM (not active)

## O=C(O)CSc1nc2ccccc2nc1Cc1ccccc1F
[2]
  EC50: > 260 µM (inactive)

## O=C(Nc1nc2c(s1)CN(Cc1ccccc1)CC2)c1c(F)cccc1F
[1]
  CC50: 16.1 µM (active)

## Nc1nc(-c2cccnc2)nc2sc3c(c12)CCCC3
[1]
  CC50: > 50 µM (active)

## COc1ccc(C2CC(=O)c3c(C)nc(N4CCN(Cc5ccccc5)CC4)nc3C2)cc1OC (configuration not stated)
[3]
  EC50: 1.85 µM (active)
[4]
  EC50: > 60 µM (not active)

## Cc1ccc2nc(-c3ccncc3)c(NC3CCCCC3)n2c1
[3]
  EC50: 1.86 µM (active)
[4]
  EC50: > 60 µM (not active)

## COc1ccccc1OCc1nnc(SCCN2CCOCC2)o1
[2]
  EC50: > 260 µM (inactive)

## Cc1ccc(C)c(N2CCN(C(=O)CCC(=O)N3CCOc4ccc(Cl)cc43)CC2)c1
[3]
  EC50: 2.47 µM (active)
[4]
  EC50: > 60 µM (not active)

## CCCC(CCC)C(=O)OC[N+](C)(C)CCOC(=O)C(O)(c1ccccc1)C1CCCC1 (configuration not stated)
[3]
  EC50: 1.31 µM (active)
[4]
  EC50: > 60 µM (not active)

## Cc1cc(C)cc(Nc2ccc([N+](=O)[O-])nc2[N+](=O)[O-])c1
[3]
  EC50: 1.63 µM (active)
[4]
  EC50: > 60 µM (not active)

## CC(Oc1cccc(Cl)c1)C(=O)Nc1ccccc1N1CCCCC1 (configuration not stated)
[5]
  EC50: 9.74 µM (active)
Streptokinase A
  EC50: 13.5 µM (active)
Streptococcus
  EC50: 26.4 µM (active)

## COc1ccccc1NS(=O)(=O)c1cc(NC(=S)NCC2CCCO2)ccc1C (configuration not stated)
Streptokinase A
  EC50: > 150 µM (not active)

## COc1ccccc1NS(=O)(=O)c1cc(NC(S)=NCC2CCCO2)ccc1C (configuration not stated)
[5]
  EC50: > 150 µM (not active)
Streptococcus
  EC50: > 150 µM (not active)

## Cc1cc(-c2ccccc2)c2c(O)[nH]nc2n1
[1]
  CC50: 48.2 µM (active)

## COc1ccc(C2C(C(C)=O)=C(O)C(=O)N2c2ccc(C)cc2)cc1 (configuration not stated)
[2]
  EC50: > 260 µM (inactive)

## CC(C)(C)c1[nH]ncc1[N+](=O)[O-]
[2]
  EC50: > 260 µM (inactive)

## Cc1ccccc1N=C(S)N(Cc1cccnc1)Cc1ccccc1Cl
[3]
  EC50: 0.8 µM (active)
[4]
  EC50: > 60 µM (not active)

## CC(=O)c1ccc(N=C(S)N2C(C)CCCC2C)cc1 (configuration not stated)
[2]
  EC50: > 260 µM (inactive)

## CCN(CCCC(=O)c1ccc(F)cc1)CCc1ccccc1
[3]
  EC50: 0.111 µM (active)
[4]
  EC50: > 60 µM (not active)

## Cc1nc(N2CCN(Cc3ccc4c(c3)OCO4)CC2)c2cc(-c3ccccc3)sc2n1
[5]
  EC50: 19.3 µM (active)
Streptokinase A
  EC50: > 150 µM (not active)
Streptococcus
  EC50: 112 µM (active)

## Cc1cc(OCCCn2ccnc2)ccc1C(C)C
[3]
  EC50: 1.99 µM (active)
[4]
  EC50: > 60 µM (not active)

## Brc1c[nH]c2nc(SC/C=C/c3ccccc3)nc-2c1
[2]
  EC50: 1.37 µM (active)

## COc1ccc(-n2c(=S)[nH]c3cc(C(=O)Nc4ccc(C)c(F)c4)ccc3c2=O)c(OC)c1
[5]
  EC50: 9.84 µM (active)
Streptokinase A
  EC50: > 150 µM (not active)
Streptococcus
  EC50: 14.8 µM (active)

## COc1ccc(-c2ncc(CN3CCN(CCC(C)C)C(CCO)C3)cn2)cc1 (configuration not stated)
[3]
  EC50: 0.933 µM (active)
[4]
  EC50: 12.3 µM (active)

## Cc1cccc(C(=O)N2CCC(=O)N(C(COCc3ccc(Cl)cc3)Cc3ccccc3)CC2)c1 (configuration not stated)
[1]
  CC50: 19.6 µM (active)

## Cc1ccccc1Oc1nc2c(C)cccn2c(=O)c1/C=C(\C#N)C(=O)Nc1c(C)n(C)n(-c2ccccc2)c1=O
[2]
  EC50: 12.1 µM (active)

## O=C(Nc1ncc(Cc2cccc(C(F)(F)F)c2)s1)c1ccc(-c2cccc([N+](=O)[O-])c2)o1
[3]
  EC50: 1.73 µM (active)
[4]
  EC50: 9.52 µM (active)

## O=C(NC12CC3CC(CC(C3)C1)C2)c1ccc(-c2ccc(Br)cc2)o1
[5]
  EC50: 4.59 µM (active)
Streptokinase A
  EC50: 35.3 µM (active)
Streptococcus
  EC50: 9.47 µM (active)

## CCN(C(=O)c1cc2c(s1)-c1ccccc1OC2)c1cc(OC)ccc1OC
[1]
  CC50: 26.8 µM (active)

## CCN1CCN(C(CNS(=O)(=O)c2ccc(C)cc2)c2cccnc2)CC1 (configuration not stated)
[5]
  EC50: > 150 µM (not active)
Streptokinase A
  EC50: > 150 µM (not active)
Streptococcus
  EC50: > 150 µM (not active)

## COc1ccc(Cl)cc1C(=O)NNC(=S)NC(=O)c1cc(-c2ccc(Cl)cc2)nc2ccccc12
[5]
  EC50: 0.202 µM (active)
Streptococcus
  EC50: 6 µM (active)

## CCCC(=O)Nc1cc(-c2nn(C)c(=O)c3ccccc23)ccc1OC
[2]
  EC50: > 260 µM (inactive)

## OCCC1CN(Cc2cc3c(cc2Cl)OCO3)CCN1Cc1ccccc1 (configuration not stated)
[3]
  EC50: 1.21 µM (active)
[4]
  EC50: > 60 µM (not active)

## CC(=O)c1cccc(S(=O)(=O)N2CCCC(c3nc(O)c4nnn(Cc5cccc(Cl)c5)c4n3)C2)c1 (configuration not stated)
[1]
  CC50: > 50 µM (active)

## C#C[C@@]1(O)CC[C@@H]2[C@@H]3CCC4=CC(=O)CC[C@@H]4[C@H]3CC[C@]21CC
Cytochrome P450 2C19
  AC50: 0.0794 µM (inconclusive)

## Cc1ccc(C)c(S(=O)(=O)N2CCN(CC(=O)Nc3cc(C)on3)CC2)c1
[2]
  EC50: > 260 µM (inactive)

## C=CCn1c(-c2ccc(Cl)cc2)ccc(C#N)c1=O
[1]
  CC50: > 50 µM (active)

## CC(Oc1ccc(Cl)cc1Cl)C(=O)NCCCCc1ccccc1 (configuration not stated)
[2]
  EC50: > 260 µM (inactive)

## Cc1ccc2nc(-c3ccncc3)c(NC3CCCC3)n2c1
[3]
  EC50: 2.29 µM (active)
[4]
  EC50: > 60 µM (not active)

## COc1ccc(-c2ccc([C@H]3[C@@H]4C=CCC[C@@]4(C)C(=O)N3Cc3ccccc3)c(F)c2)cc1OC
[3]
  EC50: 2.55 µM (active)
[4]
  EC50: 37.1 µM (active)

## CC1(C)CC(=O)C(/C=N/c2cccnc2)=C(O)C1
[2]
  EC50: 16.6 µM (active)

## C/C(=N\NC(=O)c1ccccc1N)c1ccc(NC(=O)Cc2ccccc2)cc1
[5]
  EC50: 3.07 µM (active)
Streptokinase A
  EC50: > 150 µM (not active)
Streptococcus
  EC50: 16.3 µM (active)

## C/C(=N\Nc1nc(C)cc(-c2ccccc2)n1)c1ccc(C)o1
[2]
  EC50: > 260 µM (inactive)

## C=CCn1sc(N)c(C(=O)OCC)c1=S
[1]
  CC50: 24 µM (active)

## COc1cccc(-c2c(C#N)c(N)nc3c2c(C)nn3-c2ccccc2)c1O
[2]
  EC50: 57.9 µM (active)
